Our source for the IC50 values is patent US9944646B2, “Bicyclic azaheterocyclobenzylamines as PI3K inhibitors” (Incyte Corporation, priority 2012, dated 2018).

Structures are written as SMILES. pIC50: −log10 of the molar value.

The target of the assay is PI3Kδ (Homo sapiens (Human), UniProt O00329). The assay is described as follows: PI3K Enzyme Assay (Example A2), [γ-33P]ATP filter plate. Type of assay: biochemical. In outline: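 Recombinant PI3Kδ at 2.9 nM with 50 µM PIP2 in MOPS pH 6.7, MgCl2, DTT, CHAPS, 0.5% DMSO; started with 1000 μM ATP including [γ-33P]ATP, 180 min at room temperature. Phosphorylated product captured on PVDF filter plates and scintillation-counted; IC50 from percent-control activity vs log concentration.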
PI3Kδ, sequence (O00329 whole entry): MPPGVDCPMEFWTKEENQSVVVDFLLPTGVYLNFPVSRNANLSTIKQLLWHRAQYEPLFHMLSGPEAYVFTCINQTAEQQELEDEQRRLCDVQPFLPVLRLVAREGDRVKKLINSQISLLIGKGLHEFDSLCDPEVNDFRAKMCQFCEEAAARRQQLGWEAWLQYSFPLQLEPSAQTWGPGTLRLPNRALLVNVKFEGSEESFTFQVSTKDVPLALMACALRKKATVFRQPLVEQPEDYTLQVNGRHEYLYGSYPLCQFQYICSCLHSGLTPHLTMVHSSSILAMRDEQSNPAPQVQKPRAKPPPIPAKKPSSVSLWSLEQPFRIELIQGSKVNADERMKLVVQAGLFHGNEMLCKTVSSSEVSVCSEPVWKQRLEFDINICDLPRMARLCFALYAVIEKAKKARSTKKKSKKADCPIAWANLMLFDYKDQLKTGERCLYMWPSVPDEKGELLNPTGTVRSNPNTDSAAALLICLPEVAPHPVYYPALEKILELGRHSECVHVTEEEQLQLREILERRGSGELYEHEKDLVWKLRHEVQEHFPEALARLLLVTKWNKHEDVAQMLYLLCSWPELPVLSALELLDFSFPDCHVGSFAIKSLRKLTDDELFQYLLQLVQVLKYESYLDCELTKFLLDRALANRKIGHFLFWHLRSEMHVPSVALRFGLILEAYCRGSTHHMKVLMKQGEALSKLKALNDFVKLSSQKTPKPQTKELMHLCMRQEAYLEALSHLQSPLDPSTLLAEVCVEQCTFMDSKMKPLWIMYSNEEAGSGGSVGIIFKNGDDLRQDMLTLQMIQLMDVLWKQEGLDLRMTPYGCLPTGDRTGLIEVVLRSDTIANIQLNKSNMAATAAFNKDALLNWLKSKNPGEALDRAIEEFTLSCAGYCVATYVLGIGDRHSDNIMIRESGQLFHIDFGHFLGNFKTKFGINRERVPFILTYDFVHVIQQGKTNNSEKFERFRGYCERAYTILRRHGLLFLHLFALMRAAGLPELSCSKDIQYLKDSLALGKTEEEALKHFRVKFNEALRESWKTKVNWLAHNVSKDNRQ
PI3Kδ, sequence (P27986 whole entry partner): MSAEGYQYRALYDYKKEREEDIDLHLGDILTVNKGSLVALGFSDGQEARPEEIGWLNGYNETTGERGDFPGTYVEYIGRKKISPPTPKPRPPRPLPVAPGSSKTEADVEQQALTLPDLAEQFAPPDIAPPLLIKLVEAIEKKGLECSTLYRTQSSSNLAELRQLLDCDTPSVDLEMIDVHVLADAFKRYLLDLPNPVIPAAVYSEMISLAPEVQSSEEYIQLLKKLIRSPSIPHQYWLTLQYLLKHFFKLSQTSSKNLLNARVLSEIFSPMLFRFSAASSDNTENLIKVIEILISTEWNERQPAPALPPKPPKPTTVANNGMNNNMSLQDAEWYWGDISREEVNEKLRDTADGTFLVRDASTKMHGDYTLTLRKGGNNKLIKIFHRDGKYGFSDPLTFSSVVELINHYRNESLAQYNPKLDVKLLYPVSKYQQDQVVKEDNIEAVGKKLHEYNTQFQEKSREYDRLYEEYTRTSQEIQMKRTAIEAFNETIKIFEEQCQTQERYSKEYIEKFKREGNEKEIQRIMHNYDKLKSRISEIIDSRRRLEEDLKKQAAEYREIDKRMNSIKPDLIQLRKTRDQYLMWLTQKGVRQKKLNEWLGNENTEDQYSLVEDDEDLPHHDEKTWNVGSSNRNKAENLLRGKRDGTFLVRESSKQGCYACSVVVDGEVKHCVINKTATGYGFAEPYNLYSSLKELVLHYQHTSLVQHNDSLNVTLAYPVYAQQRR

`Cc1nn(C(C)c2cc(Cl)c(C#N)c3c2OC(C)CN(C2CN(S(=O)(=O)N(C)C)C2)C3)c2ncnc(N)c12` (single isomer, unassigned) [Example 105, 3-[9-[1-(4-amino-3-methyl-1H-pyrazolo[3,4-d]pyrimidin-1-yl)ethyl]-7-chloro-6-cyano-2-methyl-2,3-dihydro-1,4-benzoxazepin-4(5H)-yl]-N,N-dimethylazetidine-1-sulfonamide]: the pIC50 (in general, the IC50 on a negative log10 scale, so that one unit is a factor of ten) was at least 7.00.
In turn, `CCOC(=O)N1CC(N2Cc3c(C#N)c(Cl)cc(C(C)n4nc(C)c5c(N)ncnc54)c3OC(C)C2)C1` (single isomer, unassigned) [Example 99, ethyl 3-[9-[1-(4-amino-3-methyl-1H-pyrazolo[3,4-d]pyrimidin-1-yl)ethyl]-7-chloro-6-cyano-2-methyl-2,3-dihydro-1,4-benzoxazepin-4(5H)-yl]azetidine-1-carboxylate] showed a pIC50 of at least 7.00.
Next, `CNC(=O)C1CC(N2Cc3c(C#N)c(Cl)cc(C(C)n4nc(C)c5c(N)ncnc54)c3OC(C)C2)C1` (single isomer, unassigned) [Example 113, 3-[9-[1-(4-amino-3-methyl-1H-pyrazolo[3,4-d]pyrimidin-1-yl)ethyl]-7-chloro-6-cyano-2-methyl-2,3-dihydro-1,4-benzoxazepin-4(5H)-yl]-N-methylcyclobutanecarboxamide]: at least 7.00; `Cc1nn(C(C)c2cc(Cl)c(C#N)c3c2OCCN(C2CN(C(=O)NC(C)C)C2)C3)c2ncnc(N)c12` (stereo not shown) [Example 91, 3-[9-[1-(4-amino-3-methyl-1H-pyrazolo[3,4-d]pyrimidin-1-yl)ethyl]-7-chloro-6-cyano-2,3-dihydro-1,4-benzoxazepin-4(5H)-yl]-N-isopropylazetidine-1-carboxamide]: at least 7.00; `Cc1nn(C(C)c2cc(Cl)c(F)c3c2OC(C)CN(C2CN(C(N)=O)C2)C3)c2ncnc(N)c12` (single isomer, unassigned) [Example 84, 3-[9-[1-(4-amino-3-methyl-1H-pyrazolo[3,4-d]pyrimidin-1-yl)ethyl]-7-chloro-6-fluoro-2-methyl-2,3-dihydro-1,4-benzoxazepin-4(5H)-yl]azetidine-1-carboxamide]: at least 7.00.
With `Cc1nn(C(C)c2cc(Cl)c(C#N)c3c2OC(C)CN(Cc2cccnc2)C3)c2ncnc(N)c12` (single isomer, unassigned) [Example 60, 9-[1-(4-Amino-3-methyl-1H-pyrazolo[3,4-d]pyrimidin-1-yl)ethyl]-7-chloro-2-methyl-4-(pyridin-3-ylmethyl)-2,3,4,5-tetrahydro-1,4-benzoxazepine-6-carbonitrile], the negative-log IC50 (pIC50) is at least 7.00.
To `CC(=O)N1CC(N2Cc3c(C#N)c(Cl)cc(C(C)n4nc(C)c5c(N)ncnc54)c3OC(C)C2)C1` (single isomer, unassigned) [Example 48, 4-(1-Acetylazetidin-3-yl)-9-[1-(4-amino-3-methyl-1H-pyrazolo[3,4-d]pyrimidin-1-yl)ethyl]-7-chloro-2-methyl-2,3,4,5-tetrahydro-1,4-benzoxazepine-6-carbonitrile] belongs 6.30 to 7.00.
Next, `Cc1nn(C(C)c2cc(Cl)c(F)c3c2OC(C)CN(C[C@@H](C)O)C3)c2ncnc(N)c12` (single isomer, unassigned) [Example 77]: at least 7.00; `COCCN1Cc2c(C#N)c(Cl)cc(C(C)n3nc(C)c4c(N)ncnc43)c2OC(C)C1` (single isomer, unassigned) [Example 112, 9-[1-(4-amino-3-methyl-1H-pyrazolo[3,4-d]pyrimidin-1-yl)ethyl]-7-chloro-4-(2-methoxyethyl)-2-methyl-2,3,4,5-tetrahydro-1,4-benzoxazepine-6-carbonitrile]: at least 7.00.
With `Cc1nn(C(C)c2cc(Cl)c(C#N)c3c2OC(C)CN(C2CN(CC(C)(C)O)C2)C3)c2ncnc(N)c12` (single isomer, unassigned) [Example 54, 9-[1-(4-Amino-3-methyl-1H-pyrazolo[3,4-d]pyrimidin-1-yl)ethyl]-7-chloro-4-[1-(2-hydroxy-2-methylpropyl)azetidin-3-yl]-2-methyl-2,3,4,5-tetrahydro-1,4-benzoxazepine-6-carbonitrile], the pIC50 was at least 7.00.
